Read-outs that look alike come from different tables or passages of the source.
Legend:
[1] = system: male Wister strain rats; assay: Antidepressant effect in rat forced swimming test; type: in vivo
Description: The present test can evaluate antidepressant effect of a drug. When a rat is thrown into a water bath from which the rat cannot escape to be made to swim, the rat takes on escape behavior in the beginning and then becomes immobile. Next day, when the rat is thrown into a water bath again, the immobility appears earlier than that of the first trial. The method can evaluate the antidepressant effect of a test compound by using the duration of the immobility time as an indicator of depressive behavior. A day before the test, male Wister strain rats (purchased from Charles River Laboratories Japan, body weight: 260-300 g) were made to swim in a water bath for 15 minutes. On the test day, the test compound was orally administered to the rats (10-12 rats in one group). An hour later, the rats were made to swim again for 5 minutes and each immobility time was measured. In the control group, 0.5% methylcellulose solution as the test compound was administered to the rats which were subjected to the same behavior test. The antidepressant effect was indicated by the average rate of deceasing the immobility time per that of the control group.

[2] = system: GABA(A) receptors; assay: Evaluation of the potentiating effect on GABA(A) receptors (electrophysiology, GABA(A) receptor expressing cells); type: cell-based; conditions: for Inhibition rate to the increased electric current by adding flumazenil: 2 μM GABA and test compound with 10 μM flumazenil; for The potentiating effect on GABA(A) receptors EC20: concentration giving 20% increase of the current generated by 2 μM GABA; for inhibition of the potentiating effect on GABA(A) receptors with flumazenil (in words): benzodiazepine antagonist
Protocol: Using GABA(A) receptor expressing cells prepared according to Guideline for Generation of Stable Cell Lines (website of Lonza Japan; Non-patent Literature 4), the present test is done for evaluating the potentiating effect of a drug on GABA(A) receptors based on the electric current raised by GABA. The GABA(A) receptor expressing cells were used in electrophysiological study, wherein the electric current was measured when 2 μM GABA solution and then a mixture of 2 μM GABA and the test compound were added to the cells. […] In addition, the electric current generated by a mixture of 2 μM GABA solution and the test compound with 10 μM flumazenil was measured, and the inhibition rate for the electric current by adding flumazenil was calculated compared to the electric current obtained in the absence of flumazenil.

[3] = system: Slc: ddy male mice; conditions: mouse, in vivo, po, 1 h
Protocol: The present test is a test for evaluating whether the test compound may disturb coordinated movement or not. Rotarod is an apparatus equipped with a rotating columnar bar whose diameter is 4 cm, in which a mouse is made to walk on the rotating bar, and the coordinated movement is evaluated from the result of walking (can walk or cannot walk). Slc: ddy male mice (purchased from Japan SLC, Inc., body weight: 20-30 g) were trained 3 hours before the test starts so that they could walk on a rotarod apparatus rotating with a speed of 12 rotations per minute for 5 minutes without falling. Only the mice which can walk in the training are used in the test. The test compound was orally administered to a group consisting of 5 mice. […] To control mice, 0.5% methylcellulose solution was administered as test compound, and the same test was also done. The coordinated movement was evaluated with the average of the five mice's walking time (second).

[4] = system: BALB/c-Scn1a<+/−> mice; assay: Anticonvulsant effect in mouse model of Dravet syndrome with febrile seizures; type: in vivo; conditions: oral; for Difference of the threshold temperature of convulsion from that of the control group: at the dose for anticonvulsive effect, hyperthermia 50 minutes after dosing; for Dose for anticonvulsive effect: dose needed to raise the threshold body temperature for inducing febrile seizures significantly compared with the control group
Description: This is a test for evaluating the anticonvulsant effect for febrile seizures of the test compounds in a mouse model of Dravet syndrome. In this test, BALB/c-Scn1a<+/−> mice were used (catalog number: RBRC06422; they are available from RIKEN BioResource Research Center via the National BioResource Project). The present mouse model having a mutation in a responsible gene for Dravet syndrome, Scn1A, presents with symptoms similar to febrile seizures caused by hyperthermia which is a symptom in a patient suffering from Dravet syndrome, and can be used as an animal model of spontaneous Dravet syndrome (for reference: the Japan Epilepsy Research Foundation, Annual Report 2015: 26: 69-76). To male mice model of Dravet syndrome (one group: 5-8 mice, body weight: 20-30 g) were orally administered the test compound. 50 minutes later, the mice were put in a chamber warmed with hot bath to evoke hyperthermia, and observed about the development of febrile seizures. Immediately after febrile seizure was developed, the rectal temperature was measured and used as the threshold body temperature for inducing febrile seizures.

Compound	Inhibition rate to the increased electric current by adding flumazenil [2] [%]	The potentiating effect on GABA(A) receptors EC20 [2] [µM]	average of the five mice's walking time ([3]; 100 mg/kg) [s]	further results
CN1C(=O)CN=C(c2ccccc2)c2cc(Cl)ccc21 [diazepam, reference compound]	93	0.03		antidepressant effect / immobility time (in words) ([1]; oral): did not show antidepressant effect; average rate of deceasing the immobility time per that of the control group ([1]; oral 10 mg/kg, swim 5 minutes an hour later): 18.3; potentiating effect on GABA(A) receptors (in words) [2]: has the potentiating effect on GABA(A) receptors; inhibition of the potentiating effect on GABA(A) receptors with flumazenil (in words) [2]: strongly inhibited
NC(=O)C1(c2nc(-c3ccc(F)cc3)no2)CC1 [Example 4, 1-[3-(4-fluorophenyl)-1,2,4-oxadiazol-5-yl]cyclopropane-1-carboxamide]		>100	180	
CC(C)(c1nnc(-c2ccc(Br)cc2)o1)S(N)(=O)=O [Example 24, 2-[5-(4-bromophenyl)-1,3,4-oxadiazol-2-yl]propane-2-sulfonamide]		86	180	
CC(C)(c1nnc(-c2ccc(F)cc2)o1)S(N)(=O)=O [Example 22, 2-[5-(4-fluorophenyl)-1,3,4-oxadiazol-2-yl]propane-2-sulfonamide]		>300	180	
CC(C)(c1noc(-c2ccc(Cl)cc2)n1)S(N)(=O)=O [Example 20, 2-[5-(4-chlorophenyl)-1,2,4-oxadiazol-3-yl]propane-2-sulfonamide]	55	20	180	Difference of the threshold temperature of convulsion from that of the control group [4]: 0.6 °C; Dose for anticonvulsive effect [4]: 100 mg/kg
CC(C)(C(N)=O)c1noc(-c2ccc(F)cc2)n1 [Example 12, 2-[5-(4-fluorophenyl)-1,2,4-oxadiazol-3-yl]-2-methylpropanamide]		234	180	
CC(C)(c1nc(-c2ccc(Br)cc2)no1)S(N)(=O)=O [Example 19, 2-[3-(4-bromophenyl)-1,2,4-oxadiazol-5-yl]propane-2-sulfonamide]		34	180	
CC(C)(C(N)=O)c1nc(-c2ccc(F)cc2)no1 [Example 1, 2-[3-(4-Fluorophenyl)-1,2,4-oxadiazol-5-yl]-2-methylpropanamide]		55	180	
CC(C)(C(N)=O)c1noc(-c2ccc(Cl)cc2)n1 [Example 13, 2-[5-(4-chlorophenyl)-1,2,4-oxadiazol-3-yl]-2-methylpropanamide]	<0	71	180	Difference of the threshold temperature of convulsion from that of the control group [4]: 0.6 °C; Dose for anticonvulsive effect [4]: 50 mg/kg
CN1C(=O)CC(=O)N(c2ccccc2)c2cc(Cl)ccc21 [clobazam, reference compound]	88	0.34		inhibition of the potentiating effect on GABA(A) receptors with flumazenil (in words) [2]: strongly inhibited
CC(C)(C(N)=O)c1nc(-c2ccc(Cl)cc2)no1 [Example 2, 2-[3-(4-chlorophenyl)-1,2,4-oxadiazol-5-yl]-2-methylpropanamide]	<0	29	180	Difference of the threshold temperature of convulsion from that of the control group [4]: 0.6 °C; Dose for anticonvulsive effect [4]: 50 mg/kg
NC(=O)C1(c2nc(-c3ccc(Cl)cc3)no2)CCC1 [Example 8, 1-[3-(4-chlorophenyl)-1,2,4-oxadiazol-5-yl]cyclobutane-1-carboxamide]		3.2	180	
CC(C)(c1noc(-c2ccc(Br)cc2)n1)S(N)(=O)=O [Example 21, 2-[5-(4-bromophenyl)-1,2,4-oxadiazol-3-yl]propane-2-sulfonamide]		9.6	180	
NC(=O)C1(c2nc(-c3ccc(Cl)cc3)no2)CC(F)C1 (centres unmarked) [Example 6, 1-[3-(4-chlorophenyl)-1,2,4-oxadiazol-5-yl]-3-fluorocyclobutane-1-carboxamide]		3.3	180	
CC(C)(C(N)=O)c1nnc(-c2ccc(Cl)cc2)o1 [Example 15, 2-[5-(4-chlorophenyl)-1,3,4-oxadiazol-2-yl]-2-methylpropanamide]		>300	180	
NC(=O)C1(c2nc(-c3ccc(Cl)cc3)no2)CCCC1 [Example 9, 1-[3-(4-chlorophenyl)-1,2,4-oxadiazol-5-yl]cyclopentane-1-carboxamide]		2.7	180	
CN1C(=O)CCC1c1nc(-c2ccc(F)c(F)c2)no1 (centres unmarked) [Example 27, 5-[3-(3,4-difluorophenyl)-1,2,4-oxadiazol-5-yl]-1-methylpyrrolidin-2-one]	<0	39		average of the five mice's walking time ([3]; 50 mg/kg): 180 s
CC(C)(c1nc(-c2ccc(Cl)cc2)no1)S(N)(=O)=O [Example 18, 2-[3-(4-chlorophenyl)-1,2,4-oxadiazol-5-yl]propane-2-sulfonamide]	<0	37	180	
NC(=O)C1(c2nc(-c3ccc(F)cc3)no2)CCOCC1 [Example 10, 4-[3-(4-fluorophenyl)-1,2,4-oxadiazol-5-yl]tetrahydro-2H-pyran-4-carboxamide]		247	180	
CC(C)(c1nnc(-c2ccc(Cl)cc2)o1)S(N)(=O)=O [Example 23, 2-[5-(4-chlorophenyl)-1,3,4-oxadiazol-2-yl]propane-2-sulfonamide]		190	180	
CN1C(=O)CCC1c1nc(-c2ccc(F)cc2F)no1 (centres unmarked) [Example 26, 5-[3-(2,4-difluorophenyl)-1,2,4-oxadiazol-5-yl]-1-methylpyrrolidin-2-one]		>100		average of the five mice's walking time ([3]; 50 mg/kg): 180 s
CC(C)(C(N)=O)c1nc(-c2ccc(Br)cc2)no1 [Example 3, 2-[3-(4-bromophenyl)-1,2,4-oxadiazol-5-yl]-2-methylpropanamide]	<0	29	180	Difference of the threshold temperature of convulsion from that of the control group [4]: 0.7 °C; Dose for anticonvulsive effect [4]: 100 mg/kg
CC(C)(c1nc(-c2ccc(F)cc2)no1)S(N)(=O)=O [Example 17, 2-[3-(4-Fluorophenyl)-1,2,4-oxadiazol-5-yl]propane-2-sulfonamide]		45	180	
NC(=O)C1(c2nc(-c3ccc(Cl)cc3)no2)CC1 [Example 5, 1-[3-(4-chlorophenyl)-1,2,4-oxadiazol-5-yl]cyclopropane-1-carboxamide]		>300	180	
NC(=O)C1(c2nc(-c3ccc(Cl)cc3)no2)CC(F)(F)C1 [Example 7, 1-[3-(4-chlorophenyl)-1,2,4-oxadiazol-5-yl]-3,3-difluorocyclobutane-1-carboxamide]		5.4	180	
CC(C)(C(N)=O)c1noc(-c2ccc(Br)cc2)n1 [Example 14, 2-[5-(4-bromophenyl)-1,2,4-oxadiazol-3-yl]-2-methylpropanamide]		32	180	
